Species on record: Rattus norvegicus
Assay: DrugMatrix - Regimen: Daily Repeat
Assay type: toxicity, organism-based, Sprague-Dawley
Design: regimen Daily Repeat, gender Male, age 6-8 weeks
Conditions: in vivo, po, route oral GAVAGE, vehicle .5 % CMC; for ABSOLUTE BASOPHIL / ABSOLUTE EOSINOPHIL / ABSOLUTE LYMPHOCYTE / ABSOLUTE MONOCYTE / ABSOLUTE SEGMENTED NEUTROPHIL / BASOPHIL / EOSINOPHIL / ERYTHROCYTE COUNT / HEMATOCRIT / HEMOGLOBIN / LEUKOCYTE COUNT / LYMPHOCYTE / MEAN CORPUSCULAR HEMOGLOBIN / MEAN CORPUSCULAR HEMOGLOBIN CONCENTRATION / MEAN CORPUSCULAR VOLUME / MONOCYTE / NEUTROPHIL / NUCLEATED RED BLOOD CELLS / PLATELET COUNT: tissue Blood; for ALANINE AMINOTRANSFERASE / ALBUMIN / ALKALINE PHOSPHATASE / ASPARTATE AMINOTRANSFERASE / BLOOD UREA NITROGEN / CARBON DIOXIDE / CHLORIDE / CHOLESTEROL / CREATINE PHOSPHOKINASE / CREATININE / GLUCOSE / LACTATE DEHYDROGENASE / LIPASE / PHOSPHORUS / POTASSIUM / SODIUM / TOTAL BILIRUBIN / TOTAL PROTEIN / URIC ACID: tissue Plasma
[1] = 2000 mg/kg, 120 h, dose level High, time 5 day
[2] = […], 72 h, dose 9.5 mg/Kg, dose level Low, time 3 day
[3] = […], 120 h, dose 9.5 mg/Kg, dose level Low, time 5 day

## O=C1Nc2ccc(Cl)cc2C(c2ccccc2Cl)=NC1O (centres undefined) [LORAZEPAM]
[1]
  ABSOLUTE BASOPHIL: 0 CELLS/uL
  ABSOLUTE EOSINOPHIL: 0 CELLS/uL
  ABSOLUTE LYMPHOCYTE: 9298.5 CELLS/uL
  ABSOLUTE MONOCYTE: 148 CELLS/uL
  ABSOLUTE SEGMENTED NEUTROPHIL: 903.5 CELLS/uL
  BASOPHIL: 0%
  EOSINOPHIL: 0%
  ERYTHROCYTE COUNT: 6.25 x10E6/uL
  HEMATOCRIT: 36.95%
  HEMOGLOBIN: 14.95 G/DL
  LEUKOCYTE COUNT: 10.35 x10E3/uL
  LYMPHOCYTE: 89%
  MEAN CORPUSCULAR HEMOGLOBIN: 23.95 pg
  MEAN CORPUSCULAR HEMOGLOBIN CONCENTRATION: 40.5 G/DL
  MEAN CORPUSCULAR VOLUME: 59.1 fL
  MONOCYTE: 1.5%
  NEUTROPHIL: 9.5%
  NUCLEATED RED BLOOD CELLS: 0 /100WBC
  PLATELET COUNT: 1267 x10E3/uL
  ALANINE AMINOTRANSFERASE: 64.5 u/L
  ALBUMIN: 4.15 G/DL
  ALKALINE PHOSPHATASE: 283.5 u/L
  ASPARTATE AMINOTRANSFERASE: 92 u/L
  BLOOD UREA NITROGEN: 21.5 mg/dL
  CARBON DIOXIDE: 29.5 mmol/L
  CHLORIDE: 100.5 MEQ/L
  CHOLESTEROL: 76.5 mg/dL
  CREATINE PHOSPHOKINASE: 814 u/L
  CREATININE: 0.18 mg/dL
  GLUCOSE: 150.5 mg/dL
  LACTATE DEHYDROGENASE: 206 u/L
  LIPASE: 17.5 u/L
  PHOSPHORUS: 8.55 mg/dL
  POTASSIUM: 5.62 MEQ/L
  SODIUM: 145.4 MEQ/L
  TOTAL BILIRUBIN: 0.1 mg/dL
  TOTAL PROTEIN: 6.2 G/DL
  URIC ACID: 0.65 mg/dL
[2]
  ABSOLUTE BASOPHIL: 0 CELLS/uL
  ABSOLUTE EOSINOPHIL: 223.33 CELLS/uL
  ABSOLUTE LYMPHOCYTE: 14276.33 CELLS/uL
  ABSOLUTE MONOCYTE: 155.67 CELLS/uL
  ABSOLUTE SEGMENTED NEUTROPHIL: 1244.67 CELLS/uL
  BASOPHIL: 0%
  EOSINOPHIL: 1.33%
  ERYTHROCYTE COUNT: 5.67 x10E6/uL
  HEMATOCRIT: 36.03%
  HEMOGLOBIN: 13.93 G/DL
  LEUKOCYTE COUNT: 15.9 x10E3/uL
  LYMPHOCYTE: 89.67%
  MEAN CORPUSCULAR HEMOGLOBIN: 24.57 pg
  MEAN CORPUSCULAR HEMOGLOBIN CONCENTRATION: 38.67 G/DL
  MEAN CORPUSCULAR VOLUME: 63.57 fL
  MONOCYTE: 1%
  NEUTROPHIL: 8%
  NUCLEATED RED BLOOD CELLS: 0 /100WBC
  PLATELET COUNT: 1298 x10E3/uL
  ALANINE AMINOTRANSFERASE: 70 u/L
  ALBUMIN: 4.33 G/DL
  ALKALINE PHOSPHATASE: 451.67 u/L
  ASPARTATE AMINOTRANSFERASE: 99.67 u/L
  BLOOD UREA NITROGEN: 17.33 mg/dL
  CARBON DIOXIDE: 24 mmol/L
  CHLORIDE: 102.67 MEQ/L
  CHOLESTEROL: 65.67 mg/dL
  CREATINE PHOSPHOKINASE: 485.67 u/L
  CREATININE: 0.22 mg/dL
  GLUCOSE: 158 mg/dL
  LACTATE DEHYDROGENASE: 594 u/L
  LIPASE: 11 u/L
  PHOSPHORUS: 10.17 mg/dL
  POTASSIUM: 6.03 MEQ/L
  SODIUM: 142.63 MEQ/L
  TOTAL BILIRUBIN: 0.13 mg/dL
  TOTAL PROTEIN: 5.93 G/DL
  URIC ACID: 1.43 mg/dL
[3]
  ABSOLUTE BASOPHIL: 0 CELLS/uL
  ABSOLUTE EOSINOPHIL: 0 CELLS/uL
  ABSOLUTE LYMPHOCYTE: 12357 CELLS/uL
  ABSOLUTE MONOCYTE: 82 CELLS/uL
  ABSOLUTE SEGMENTED NEUTROPHIL: 461 CELLS/uL
  BASOPHIL: 0%
  EOSINOPHIL: 0%
  ERYTHROCYTE COUNT: 6.11 x10E6/uL
  HEMATOCRIT: 37.87%
  HEMOGLOBIN: 14.63 G/DL
  LEUKOCYTE COUNT: 12.9 x10E3/uL
  LYMPHOCYTE: 95.67%
  MEAN CORPUSCULAR HEMOGLOBIN: 23.97 pg
  MEAN CORPUSCULAR HEMOGLOBIN CONCENTRATION: 38.63 G/DL
  MEAN CORPUSCULAR VOLUME: 62.07 fL
  MONOCYTE: 0.67%
  NEUTROPHIL: 3.67%
  NUCLEATED RED BLOOD CELLS: 0 /100WBC
  PLATELET COUNT: 1313 x10E3/uL
  ALANINE AMINOTRANSFERASE: 62 u/L
  ALBUMIN: 4.13 G/DL
  ALKALINE PHOSPHATASE: 373.33 u/L
  ASPARTATE AMINOTRANSFERASE: 87.67 u/L
  BLOOD UREA NITROGEN: 12 mg/dL
  CARBON DIOXIDE: 25 mmol/L
  CHLORIDE: 104.33 MEQ/L
  CHOLESTEROL: 26.67 mg/dL
  CREATINE PHOSPHOKINASE: 550.33 u/L
  CREATININE: 0.15 mg/dL
  GLUCOSE: 136.33 mg/dL
  LACTATE DEHYDROGENASE: 527.67 u/L
  LIPASE: 9.33 u/L
  PHOSPHORUS: 10.97 mg/dL
  POTASSIUM: 6.04 MEQ/L
  SODIUM: 143.63 MEQ/L
  TOTAL BILIRUBIN: 0.13 mg/dL
  TOTAL PROTEIN: 5.8 G/DL
  URIC ACID: 1.67 mg/dL

— ChEMBL document CHEMBL3885881, “DrugMatrix”
